Structures are written as SMILES.

We go through eight molecules from patent publication US10065937B2, “FLT3 receptor antagonists” (INSERM (INSTITUT NATIONAL DE LA SANTÉ ET DE LA RECHERCHE …, priority 2014, dated 2018).

One assay concerns the target T1, SNAP tagged-FLT3 (Homo sapiens, UniProt P36888).
T1 construct: expressed in transfected cells
T1 sequence (P36888 27-993): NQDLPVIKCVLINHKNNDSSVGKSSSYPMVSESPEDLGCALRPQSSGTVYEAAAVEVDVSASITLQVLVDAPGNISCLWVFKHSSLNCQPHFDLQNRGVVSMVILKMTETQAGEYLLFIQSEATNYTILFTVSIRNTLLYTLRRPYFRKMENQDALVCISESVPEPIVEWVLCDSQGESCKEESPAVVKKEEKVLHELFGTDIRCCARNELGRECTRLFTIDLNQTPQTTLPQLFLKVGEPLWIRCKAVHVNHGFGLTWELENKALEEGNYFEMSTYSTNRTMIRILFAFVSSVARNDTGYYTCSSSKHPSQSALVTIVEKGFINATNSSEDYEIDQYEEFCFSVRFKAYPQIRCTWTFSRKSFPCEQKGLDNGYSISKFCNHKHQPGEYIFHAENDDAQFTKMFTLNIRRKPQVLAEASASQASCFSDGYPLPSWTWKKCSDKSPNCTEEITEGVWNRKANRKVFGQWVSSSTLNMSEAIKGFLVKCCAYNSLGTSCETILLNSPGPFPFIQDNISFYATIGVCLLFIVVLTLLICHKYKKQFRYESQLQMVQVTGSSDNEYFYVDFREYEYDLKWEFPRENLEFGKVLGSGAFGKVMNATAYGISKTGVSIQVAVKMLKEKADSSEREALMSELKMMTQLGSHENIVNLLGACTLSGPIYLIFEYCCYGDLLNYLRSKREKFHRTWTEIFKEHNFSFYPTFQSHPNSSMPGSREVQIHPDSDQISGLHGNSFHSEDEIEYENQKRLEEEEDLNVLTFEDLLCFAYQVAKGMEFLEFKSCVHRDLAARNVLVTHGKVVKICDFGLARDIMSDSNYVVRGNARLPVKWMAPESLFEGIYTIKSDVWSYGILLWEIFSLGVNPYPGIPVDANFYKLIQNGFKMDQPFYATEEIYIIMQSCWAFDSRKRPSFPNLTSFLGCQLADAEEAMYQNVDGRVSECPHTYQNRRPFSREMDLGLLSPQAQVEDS
Put plainly: Tag-lite competition binding assay (Red-FL displacement, HTRF). The note with it: cells expressing SNAP tagged-FLT3, 0.5 nM Red-FL. The protocol:
Covalent Labeling of Cells Expressing the SNAP Tagged-FLT3
Labelling of Adherent Cells
Cell culture medium was removed from the 96 well plates and 100 nM of SNAP-Lumi4 Tb previously diluted in the Tag-lite labelling medium, was added under 100 μl per well, and further incubated 1 h at 37° C. under 5% CO2. The excess of SNAP-Lumi4-Tb was removed by washing each well 4 times with 100 μl of Tag-lite labelling medium.
Labelling of a Batch of Cells and Cells Freezing
After removal of the cell culture medium from a flask containing adherent cells, 5 ml of Tag-lite labelling medium containing 100 nM of SNAP-Lumi4-Tb was added to the flask and incubated for 1 h at 37° C. under 5% CO2. The excess of SNAP-Lumi4-Tb was removed by washing each flask 4 times with 5 ml of Tag-lite labelling medium. Cells were detached, pelleted by centrifugation (5 min at 1,300 rpm) and suspended in a cell culture medium containing 10% DMSO. Then, cells were distributed at 5 millions cells per vial and slowly frozen to −80° C. in isopropanol then transferred in liquid nitrogen for storage.
Prior to their use, the frozen cells were thawed quickly at 37° C., the medium was removed from the vials and the cells were suspended in the Tag-lite labelling medium at a cell-density of 1 million cells/ml.
Tag-lite binding assays were performed 24 h after transfection on fresh cells. When using frozen cells, binding assays were carried out immediately after cells thawing. When the assay was carried out on adherent cells in 96-well plates, the cell density was 50,000 cells per well, while a density of 10,000 cells per well was used to carry out binding assays in suspension in 384-well small volume plates.
Competition Binding Assay
Both Red-FL and the compounds to be tested were diluted in Tag-lite labelling medium. Cells were incubated with 0.5 nM Red-FL in the presence of increasing concentrations of compounds to be tested. In the plates containing labelled cells, 50 μl (or 10 μl in 384-well plates) of Tag-lite labelling medium, 25 μl (or 5 μl in 384-well plates) of compounds to be tested were added and incubated for 1 h at Room temperature prior to the addition of 25 μl (or 5 μl in 384-well plates) of Red-FL. Plates were then incubated at room temperature for 4 h or overnight before signal detection.
(§1) Signal was detected using an advanced fluorescence microplate reader (RUBYstar, BMG Labtech) equipped with a HTRF optic module allowing a donor excitation at 337 nm and a signal collection both at 665 nm and 620 nm. A frequency of 20 flashes/well is selected for the laser excitation. The signal was collected both at 665 nm and 620 nm using the following time-resolved settings: delay 50 μs, integration time 400 μs. HTRF ratios were obtained by dividing the acceptor signal (665 nm) by the donor signal (620 nm) and multiplying this value by 10,000. The 10,000 multiplying factor is used solely for the purpose of easier data handling.
(§2) Data Analysis and Statistics
(§3) Kd values of the fluorescent ligand were determined from saturation curves of the specific binding using GraphPad Prism software (GraphPad Software, Inc., San Diego, Calif.). Ki values of the compounds were determined from binding competition experiments according to the Cheng and Prusoff equation. EC50 and IC50 values of the rh-FL and compounds were determined from sigmoidal dose-response curves using GraphPad Prism software (GraphPad Software, Inc., San Diego, Calif.).
(In general: In TR-FRET formats the signal depends on donor and acceptor labels being close together.)

The target in another assay is T2, FLT3 receptor (Homo sapiens, UniProt P36888).
T2 construct: Auto-phosphorylation assays were performed on RS4-11 cells that express endogenous FLT3 receptor; endogenous in cells; host or cells: RS4-11 cells
T2 sequence (P36888 27-993): T1 sequence (P36888 27-993)
Put plainly: Auto-phosphorylation competition assay on RS4-11 cells (HTRF). The format is cell-based. To be noted: RS4-11 cells expressing endogenous FLT3, 0.1 μM rh-FL; read-out: IC50, μM Autophosphorylation. The method, then:
Auto-Phosphorylation Assays
Auto-phosphorylation assays were performed on RS4-11 cells that express endogenous FLT3 receptor. A density of 50,000 cells per well was used to carry out this assay in suspension in 384-well small volume plates to determine the degree of phosphorylation of FLT3. In the aim to discover antagonist compounds and to develop this assay, we were determined the efficiency of FL on RS4-11 cells.
Both rh-FL and the compounds to be tested were diluted in Tag-lite labelling medium. Cells were incubated with 0.1 μM of rh-FL in the presence of increasing concentrations of compounds to be tested. In the plates containing RS4-11 cells (5 μl/well), 5 μl of compounds to be tested were added and incubated for 1 h at Room temperature prior to the addition of 2 μl of rh-FL at 0.1 μM. After incubation of 3 minutes at room temperature of rh-FL, 4 μl of lysis buffer were added and incubated for 2 h at room temperature. A mix of anti-FLT3 and an anti-TYR-969 FLT3 antibodies labeled with Lumi4-Tb and d2 respectively (4 μl) diluted in Tag-lite labelling medium, were added on cell lysate. Plates were then incubated at room temperature for 2 h or overnight before signal detection.
as §1, §2, §3

A word on the IC50: it is the midpoint of a concentration-inhibition curve. For the molecule `O=C(Nc1cc(Cl)ccc1O)c1cccc(S(=O)(=O)N2CCCCC2)c1` [Example 1, N-(5-chloro-2-hydroxyphenyl)-3-(piperidin-1-ylsulfonyl) benzamide], the IC50 worked out at 11.8 µM on SNAP tagged-FLT3 and 58 µM on FLT3 receptor.

Turning to `O=S(=O)(c1cccc(-c2nnc(-c3cc(Cl)ccc3O)[nH]2)c1)N1CCCCC1` [Example 4, 4-chloro-2-(5-(3-(piperidin-1-ylsulfonyl)phenyl)-4H-1,2,4-triazol-3-yl)phenol], the IC50 at SNAP tagged-FLT3 turned out to be 26 µM; at FLT3 receptor, 20 µM.

Turning to `O=S(=O)(c1cccc(-c2ncc(-c3cc(Cl)ccc3O)[nH]2)c1)N1CCCCC1` [Example 5, 4-chloro-2-(2-(3-(piperidin-1-ylsulfonyl)phenyl)-1H-imidazol-5-yl)phenol], the IC50 was 33 µM at SNAP tagged-FLT3 and 17 µM on FLT3 receptor.

`NCCCN(C1CCCCC1)S(=O)(=O)c1cccc(-c2nc3cc(Cl)ccc3o2)c1` [Example 7, N-(3-aminopropyl)-3-(5-chloro-1,3-benzoxazol-2-yl)-N-cyclohexylbenzene-1-sulfonamide]: the figures for the IC50 at SNAP tagged-FLT3 and on FLT3 receptor were 10 µM and 63 µM, respectively.

As for `O=S(=O)(c1cccc(-c2nc3cccc(O)c3[nH]2)c1)N1CCCCC1` [Example 8, 2-[3-(1-piperidylsulfonyl)phenyl]-3H-benzimidazol-4-ol], the IC50 was 98 µM at SNAP tagged-FLT3 and 68 µM at FLT3 receptor.

With `O=C(Nc1cc(Cl)ccc1-c1nnn[nH]1)c1cccc(S(=O)(=O)N2CCCCC2)c1` [Example 9, N-[5-chloro-2-(1H-1,2,3,4-tetrazol-5-yl)phenyl]-3-(piperidine-1-sulfonyl)benzamide], the IC50 at SNAP tagged-FLT3 came out at 175 µM; on FLT3 receptor, 148 µM.

As for `O=C(Nc1cccc(S(=O)(=O)N2CCCCC2)c1)c1cc(Cl)ccc1O` [Example 10, 5-Chloro-2-hydroxy-N-[3-(piperidine-1sulfonyl)phenyl]benzamide], the IC50 amounted to 4.6 µM at SNAP tagged-FLT3 and 116 µM on FLT3 receptor.

Consider `CN(C1CCCCCC1)S(=O)(=O)c1cccc(C(=O)Nc2cc(Cl)ccc2O)c1` [Example 11, N-(5-chloro-2-hydroxyphenyl)-3-[cycloheptyl(methyl)sulfamoyl]benzamide], for which the IC50 on SNAP tagged-FLT3 was found to be 27.5 µM; at FLT3 receptor it was 41 µM.
